Article PMC9927457 (Microbiology Spectrum, 2023)
In brackets after ≈: the same amount, converted by molar mass.

Experiments:
[1] = test system: M. tuberculosis wild-type strain; experiment: MIC against wild-type M. tuberculosis; format: cell-based, Mycobacterium tuberculosis; conditions: concentration required to inhibit growth by 90%, 5 days culture; for MIC: Mycobacterium tuberculosis, 120 h, read-out: MIC Wild type
[2] = test system: M. tuberculosis strain under expressing LepB (LepB-UE); experiment: microbe, parasite or virus in culture; format: cell-based, Mycobacterium tuberculosis; conditions: for MIC: Mycobacterium tuberculosis, 120 h
HepG2 cells = experiment: HepG2 cytotoxicity; format: cell-based, human; conditions: Homo sapiens, HepG2, 72 h, 3 days exposure, CellTiter-Glo
Protocol: HepG2 cells were used to measure eukaryotic cytotoxicity. Viability of HepG2 was measured using CellTiter-Glo reagent (Promega) after 3 days of exposure to compounds. […] Staurosporine controls (maximum inhibition) and a staurosporine dose response were included on every plate.

in vitro = conditions: human; for Papp A→B at 2 h, 10 µM / Papp B→A at 2 h, 10 µM / efflux ratio at 2 h, 10 µM: Caco-2
Protocol: (§1) Permeability was measured across Caco-2 cells cultured in a Millipore 96-well Caco-2 plate. For apical to basolateral (A→B) permeability, 10 μM compound was added to the apical (A) side and amount of permeation was determined on the basolateral (B) side; for basolateral to apical (B→A) permeability, the compound was added to the B side and the amount of permeation was determine on the A side. Time points were taken at 2 h.
(§2) Table S2. Permeability. Permeability was measured using Caco-2 cells after 1 and 2 hours incubation with compound. (A→B) is Apical to Basolateral; (B→A) is Basolateral to Apical. Data is expressed as permeability (10-6 cm s-1). dQ/dt is rate of permeation, C0 is initial concentration […]
(§3) Article Duration direction value replicate replicate mean recovery

Caco-2 cells = experiment: Caco-2 permeability
Protocol: as §1, §2, §3

[3] = Microsomal metabolic stability; conditions: human, pH 7.4; for half-life at 1 µM: liver microsomes; for microsomal CLint at 1 µM: microsomes
Protocol: as §1
Table S3. Metabolic stability. Metabolic stability was measured using human liver microsomes. […]

[4] = target: SPase activity in M. tuberculosis H37Rv cell membrane fractions (Mycobacterium tuberculosis, UniProt P9WKA1); experiment: Inhibition of secretion (SPase activity) in membrane fractions; format: biochemical; conditions: fluorogenic peptide substrate 2 μM; 4 h, 37 °C
CYP2B6 = target: T1, CYP2B6 (Homo sapiens, UniProt P20813); experiment: Cytochrome P450 inhibition
T1 sequence (P20813 1-491): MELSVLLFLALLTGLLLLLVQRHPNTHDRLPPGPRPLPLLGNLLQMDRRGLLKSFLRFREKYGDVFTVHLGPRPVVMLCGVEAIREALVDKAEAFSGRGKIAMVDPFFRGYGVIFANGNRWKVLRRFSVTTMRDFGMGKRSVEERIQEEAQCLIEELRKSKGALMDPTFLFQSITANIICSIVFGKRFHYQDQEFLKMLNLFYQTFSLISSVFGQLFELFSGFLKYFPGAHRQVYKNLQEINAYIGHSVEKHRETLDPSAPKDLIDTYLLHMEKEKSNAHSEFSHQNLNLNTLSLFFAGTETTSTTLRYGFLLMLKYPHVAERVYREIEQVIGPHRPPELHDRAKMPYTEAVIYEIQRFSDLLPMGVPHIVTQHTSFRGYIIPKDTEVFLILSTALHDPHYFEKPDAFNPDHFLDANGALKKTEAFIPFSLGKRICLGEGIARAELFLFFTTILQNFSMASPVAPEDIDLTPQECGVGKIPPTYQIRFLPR
Protocol: (§4) Table S4. Inhibition of cytochrome P450s.
(§5) Compounds were tested for inhibition of P450s using the enzyme substrate pairs and conditions noted. IC50s (µM) were calculated. Control P450 inhibitors were included for each isoform.
(§6) For each compound, the analytical method was developed as follows. Analyte signal was optimized for each compound by ESI positive or negative ionization mode. An MS2 scan or an SIM scan was used to optimize fragmenter voltage and a product ion analysis was used to identify the best fragment for analysis. The collision energy was optimized using a product ion or MRM scan. An ionization ranking was assigned indicating the compound’s ease of ionization. Samples […]
(§7) 1200 HPLC and a CTC PAL chilled autosampler, all controlled by MassHunter software (Agilent).
(§8) After separation on a C18 reverse phase HPLC column (Agilent Zorbax StableBond 3.5µm, 2.1 x 30 mm) using an acetonitrile -water gradient system, peaks were analyzed by mass spectrometry (MS) using ESI ionization in MRM mode.
(§9) (1 picture or pasted object on this page, not shown here)
(§10) Serial dilutions of a 10 mM stock solution were prepared in acetonitrile:DMSO (9:1). The final DMSO concentration was < 0.2%. Compounds were incubated with human liver microsomes in the presence of 2 mM NADPH in 100 mM potassium phosphate (pH 7.4) containing 5 mM magnesium chloride and a probe substrate, in a 200 µl assay final volume in duplicate. The probe substrate concentrations including bupropion (CYP2B6), amodiaquine (CYP2C8), tolbutamide (CYP2C9), mephenytoin (CYP2C19), dextromethorphan (CYP2D6) and midazolam/testosterone […]
(§11) After incubation at 37 °C, reactions were terminated by addition of methanol containing internal standard (propranolol) for analytical quantification. The quenched samples were kept on ice for 10 min and centrifuged at 4 °C for 10 min. The supernatant was removed and the probe substrate metabolite was analyzed by LC-MS/MS (Agilent Technologies Triple Quad LC/MS). A decrease in the formation of the metabolite compared to vehicle control

CYP2C19 = CYP2C19 (Homo sapiens, UniProt P33261); experiment: biochemical
Protocol: as §4, §5, §6, §7, §8, §9, §10, §11

CYP2C8 = target: T2, CYP2C8 (Homo sapiens, UniProt P10632); experiment: biochemical
T2 sequence (P10632 1-490): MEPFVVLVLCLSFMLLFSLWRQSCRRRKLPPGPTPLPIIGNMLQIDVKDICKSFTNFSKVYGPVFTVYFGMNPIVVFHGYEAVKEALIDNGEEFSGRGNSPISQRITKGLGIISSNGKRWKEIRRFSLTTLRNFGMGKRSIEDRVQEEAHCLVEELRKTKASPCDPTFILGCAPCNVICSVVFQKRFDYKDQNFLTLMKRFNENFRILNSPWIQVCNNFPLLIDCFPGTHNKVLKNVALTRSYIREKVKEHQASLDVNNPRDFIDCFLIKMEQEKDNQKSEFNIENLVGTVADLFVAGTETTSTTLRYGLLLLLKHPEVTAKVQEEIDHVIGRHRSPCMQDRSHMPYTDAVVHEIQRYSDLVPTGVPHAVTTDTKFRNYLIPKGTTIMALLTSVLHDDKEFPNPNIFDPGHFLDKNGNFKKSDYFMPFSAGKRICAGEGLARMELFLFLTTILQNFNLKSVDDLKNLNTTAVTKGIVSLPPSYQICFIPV
Protocol: as §4, §5, §6, §7, §8, §9, §10, §11

CYP2C9 = CYP2C9 (Homo sapiens, UniProt P11712); experiment: biochemical
Protocol: as §4
(§12) Compounds were tested for inhibition of P450s using the enzyme substrate pairs and conditions noted. IC50s (µM) were calculated. Control P450 inhibitors were included for each isoform. […]
as §10, §11

CYP2D6 = CYP2D6 (Homo sapiens, UniProt P10635); experiment: biochemical
Protocol: as §4, §12, §7, §8, §10, §11

CYP3A4 = CYP3A4 (Homo sapiens, UniProt P08684); experiment: Cytochrome P450 inhibition; format: in vitro ADME; conditions: liver microsomes
Protocol: as §4, §5, §6, §7, §8, §9, §10, §11

[5] = Plasma protein binding (Rapid Equilibrium Dialysis); format: in vitro ADME, human; conditions: human; for fraction unbound at 4 h, 5 µM: plasma
Protocol: Molecule fraction fraction Post-Assay
Table S5. Plasma protein binding
Protein binding was measured in human plasma using Rapid Equilibrium Dialysis (RED) devices (Pierce) according to the manufacturers’ instructions; 5 µM compounds in plasma were dialysed against PBS for 4 h at 37C. Compounds were detected by LC-MS/MS in plasma and PBS

RAW 264.7 macrophages = experiment: Cytotoxicity against infected macrophages; format: cell-based, murine; conditions: Mus musculus; infected RAW264:7 cells, 72 h; read-out: IC50 Macrophage
Protocol: Murine RAW 264.7 macrophages (ATCC TIB-71) were infected with M. tuberculosis DsRed (DREAM8) ([29]) as described at a multiplicity of infection of 1 for 24 h, washed, harvested, and dispensed into 384-well plates ([30]). Infected macrophages were exposed to compounds for 72 h; cell nuclei were stained with SYBR green I. Plates were imaged with an ImageXpress Micro High Content Screening System (Molecular Devices) using a ×4 objective and FITC and Texas Red channels. MetaXpress was used to determine the integrated intensity of bacteria or macrophages. […] Isoniazid and staurosporine controls (maximum inhibition) and dose responses were included on every plate.

[6] = Mean plasma fraction Unbound Fuplasma

SPase activity in M. tuberculosis H37Rv cell membrane fractions, sequence (P9WKA1 whole entry): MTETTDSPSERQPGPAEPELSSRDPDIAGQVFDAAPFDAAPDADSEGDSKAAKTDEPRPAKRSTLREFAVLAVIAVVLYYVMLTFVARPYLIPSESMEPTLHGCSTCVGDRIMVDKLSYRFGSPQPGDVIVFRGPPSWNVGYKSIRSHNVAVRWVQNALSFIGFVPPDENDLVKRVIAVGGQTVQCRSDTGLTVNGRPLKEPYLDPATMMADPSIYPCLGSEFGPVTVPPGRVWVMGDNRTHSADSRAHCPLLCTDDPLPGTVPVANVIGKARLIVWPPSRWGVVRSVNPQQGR
CYP3A4, sequence (P08684 2-503): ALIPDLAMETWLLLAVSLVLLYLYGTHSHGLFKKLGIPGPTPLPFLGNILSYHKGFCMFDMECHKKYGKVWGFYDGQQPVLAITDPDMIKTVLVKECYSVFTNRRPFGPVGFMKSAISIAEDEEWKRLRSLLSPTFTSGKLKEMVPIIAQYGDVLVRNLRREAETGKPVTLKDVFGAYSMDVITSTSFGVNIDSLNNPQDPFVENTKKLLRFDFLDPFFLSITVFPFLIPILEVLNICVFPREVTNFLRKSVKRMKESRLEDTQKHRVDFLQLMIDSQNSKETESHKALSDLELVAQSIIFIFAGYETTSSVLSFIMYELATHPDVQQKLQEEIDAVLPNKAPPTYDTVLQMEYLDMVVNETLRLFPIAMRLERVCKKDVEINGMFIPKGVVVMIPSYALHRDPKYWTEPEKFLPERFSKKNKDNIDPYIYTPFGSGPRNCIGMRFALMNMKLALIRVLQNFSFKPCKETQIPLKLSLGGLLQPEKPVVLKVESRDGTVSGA
CYP2C19, sequence (P33261 whole entry): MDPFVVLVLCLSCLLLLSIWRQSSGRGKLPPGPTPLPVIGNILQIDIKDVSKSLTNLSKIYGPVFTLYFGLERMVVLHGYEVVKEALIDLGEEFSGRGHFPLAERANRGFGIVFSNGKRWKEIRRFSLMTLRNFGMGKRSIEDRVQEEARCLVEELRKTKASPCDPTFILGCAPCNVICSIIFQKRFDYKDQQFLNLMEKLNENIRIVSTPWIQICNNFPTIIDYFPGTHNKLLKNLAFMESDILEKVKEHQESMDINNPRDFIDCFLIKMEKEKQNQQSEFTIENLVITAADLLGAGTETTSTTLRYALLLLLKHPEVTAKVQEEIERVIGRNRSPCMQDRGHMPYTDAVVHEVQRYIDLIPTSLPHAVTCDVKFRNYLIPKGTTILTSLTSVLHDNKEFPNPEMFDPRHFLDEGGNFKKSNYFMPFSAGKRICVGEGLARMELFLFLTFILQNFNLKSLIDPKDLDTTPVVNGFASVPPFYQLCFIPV
CYP2C9, sequence (P11712 whole entry): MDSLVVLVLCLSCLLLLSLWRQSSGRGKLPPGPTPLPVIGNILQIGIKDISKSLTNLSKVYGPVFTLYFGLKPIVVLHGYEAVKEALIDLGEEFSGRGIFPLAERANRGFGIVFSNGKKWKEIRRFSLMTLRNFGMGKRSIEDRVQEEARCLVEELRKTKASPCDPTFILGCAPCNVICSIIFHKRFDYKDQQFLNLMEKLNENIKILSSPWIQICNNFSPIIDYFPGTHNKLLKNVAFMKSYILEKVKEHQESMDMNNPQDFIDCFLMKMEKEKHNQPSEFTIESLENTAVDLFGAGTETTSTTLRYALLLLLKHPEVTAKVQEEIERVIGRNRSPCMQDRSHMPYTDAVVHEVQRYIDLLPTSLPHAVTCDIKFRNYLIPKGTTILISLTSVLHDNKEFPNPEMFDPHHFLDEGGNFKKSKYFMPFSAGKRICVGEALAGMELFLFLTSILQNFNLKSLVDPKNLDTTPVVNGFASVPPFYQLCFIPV
CYP2D6, sequence (P10635 whole entry): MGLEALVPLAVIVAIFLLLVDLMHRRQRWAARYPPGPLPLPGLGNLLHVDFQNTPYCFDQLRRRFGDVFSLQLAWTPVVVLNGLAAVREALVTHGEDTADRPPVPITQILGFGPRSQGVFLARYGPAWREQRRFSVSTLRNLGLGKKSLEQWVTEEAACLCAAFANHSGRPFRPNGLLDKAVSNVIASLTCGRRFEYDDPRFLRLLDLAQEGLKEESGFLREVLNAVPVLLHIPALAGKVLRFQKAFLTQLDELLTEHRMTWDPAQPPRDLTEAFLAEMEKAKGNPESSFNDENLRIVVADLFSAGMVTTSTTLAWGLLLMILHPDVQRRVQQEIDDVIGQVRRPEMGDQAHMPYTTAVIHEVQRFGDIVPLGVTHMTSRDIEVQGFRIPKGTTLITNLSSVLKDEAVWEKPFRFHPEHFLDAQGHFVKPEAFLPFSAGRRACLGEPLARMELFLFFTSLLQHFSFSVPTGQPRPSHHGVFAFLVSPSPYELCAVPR

SMILES | MIC [1] [µM] | MIC Wild type [1] [µM] | MIC LepB-UE [2] [µM] | MIC [2] [µM] | IC50 (HepG2 cells) [µM] | Papp A→B at 2 h, 10 µM (in vitro) [×10⁻⁶ cm/s] | Papp B→A at 2 h, 10 µM (in vitro) [×10⁻⁶ cm/s] | efflux ratio at 2 h, 10 µM (in vitro) | dQ/dt (rate of permeation), mean (Caco-2 cells; A→B, assay duration 1 hr) | dQ/dt (rate of permeation), mean (Caco-2 cells; A→B, assay duration 2 hr) | dQ/dt (rate of permeation), mean (Caco-2 cells; B→A, assay duration 1 hr) | dQ/dt (rate of permeation), mean (Caco-2 cells; B→A, assay duration 2 hr) | half-life at 1 µM [3] [min] | microsomal CLint at 1 µM [3] [µL/min/mg] | IC50 [4] [µM] | IC50 (CYP2B6) [µM] | IC50 (CYP2C19) [µM] | IC50 (CYP2C8) [µM] | IC50 (CYP2C9) [µM] | fraction unbound at 4 h, 5 µM ([5]; Mean plasma fraction Bound) | further results
CCCCNC(=S)Nc1nc2ccccc2o1 [Molecule 12, 1-(benzo[d]oxazol-2-yl)-3-butylthiourea] | 23 to 32 (≈ 5.73 to 7.98 µg/mL) | 23 ± 9.0 (≈ 5.73 µg/mL) | 32 ± 11 (≈ 7.98 µg/mL) | 23 to 32 (≈ 5.73 to 7.98 µg/mL) | 21 ± 19 | 4.9 | 5.8 | 1.2 | 3.4E-05 | 3.2E-05 | 2.7E-05 | 3.0E-05 | 11 | 218 | > 200 | > 20 | 12.7 | > 20 | > 20 | 0.002 | IC50 (CYP2D6): > 20 µM; IC50 at 10 min (CYP3A4; pH 7.4, probe midazolam): > 20 µM; IC50 at 10 min (CYP3A4; pH 7.4, probe testosterone): > 20 µM; recovery at 4 h, 5 µM [5]: 80.1%; fraction unbound at 4 h, 5 µM [5, 6]: 0.002
CCCCNC(=S)Nc1nc(-c2ccccc2)co1 [Molecule 23, 1-butyl-3-(4-phenyloxazol-2-yl)thiourea] | 10 to 11 (≈ 2.75 to 3.03 µg/mL) | 11 ± 4.0 (≈ 3.03 µg/mL) | 10 ± 2.0 (≈ 2.75 µg/mL) | 10 to 11 (≈ 2.75 to 3.03 µg/mL) | 32 ± 4 |  |  |  |  |  |  |  |  |  | > 200 |  |  |  |  |  | IC50 (RAW 264.7 macrophages): 30 ± 6.4 µM
COCCCNC(=S)Nc1nc2ccccc2s1 [Molecule 24, 1-(benzo[d]thiazol-2-yl)-3-(3-methoxypropyl)thiourea] | 65 ± 21 (≈ 18.3 µg/mL) |  |  | 58 ± 1 (≈ 16.3 µg/mL) | 65 ± 60 | 17 | 15 | 0.87 | 1.1E-04 | 8.8E-05 | 8.0E-05 | 1.1E-04 | 8.2 | 282 |  | > 20 | > 20 | > 20 | > 20 | 0.055 | recovery at 2 h, 10 μM (in vitro; Caco-2, recovery): 54%; IC50 (CYP2D6): > 20 µM; IC50 at 10 min (CYP3A4; pH 7.4, probe midazolam): > 20 µM; IC50 at 10 min (CYP3A4; pH 7.4, probe testosterone): > 20 µM; recovery at 4 h, 5 µM [5]: 76.5%; fraction unbound at 4 h, 5 µM [5, 6]: 0.055
S=C(NCCc1ccccc1)Nc1nc2ccccc2s1 [Molecule 26, 1-(benzo[d]thiazol-2-yl)-3-phenethylthiourea] | > 200 |  |  | 8 ± 3 (≈ 2.51 µg/mL) | 8 ± 6 |  |  |  |  |  |  |  |  |  | > 200 |  |  |  |  | 0.055 | IC50 (RAW 264.7 macrophages): 1.4 ± 0.2 µM
